Consider 4 compounds from US20240423908A1, “Improved Nasal Administration of Parkinson's Therapeutics” (Cyrano Therapeutics, Inc., priority 2022, published 2024).

Common to all, as to assay type: in vivo
One experiment deals with Parkinson's disease. The experiment is described as follows: Treatment of Parkinson's disease with a nasal spray composition (Examples 4 and 6). From the text: A subject is admitted to a clinic for tremors and rigid muscles. The subject is diagnosed with Parkinson's disease. The subject is prescribed a rolipram composition in a nasal spray device described herein. The subject administers the nasal spray in an effective dose 2× daily in each naris. The nasal spray is characterized by a spray containing a D50 of about 15 μm to about 24 μm, a D90 of from about 30 μm to about 50 μm, and where less than about 3% of the droplets in the plume of a spray have a size of less than about 10 μm.
A subject is admitted to a clinic for bradykinesia and impaired balance. The subject is diagnosed with Parkinson's disease. The subject is prescribed a levodopa composition in a nasal spray device described herein. The subject administers the nasal spray in an effective dose 4× daily in each naris. The nasal spray is characterized by a spray containing a D50 of about 15 μm to about 24 μm, a D90 of from about 30 μm to about 50 μm, and where less than about 3% of the droplets in the plume of a spray have a size of less than about 10 μm.

The next experiment concerns Alzheimer's disease. The experiment is described as follows: Treatment of Alzheimer's disease with a nasal spray composition (Example 7). Particulars: donepezil composition, nasal spray 3× daily in each naris. From the text:
A subject is admitted to a clinic for confusion and inability to concentrate. The subject is diagnosed with Alzheimer's disease. The subject is prescribed a donepezil composition in a nasal spray device described herein. The subject administers the nasal spray in an effective dose 3× daily in each naris. The nasal spray is characterized by a spray containing a D50 of about 15 μm to about 24 μm, a D90 of from about 30 μm to about 50 μm, and where less than about 3% of the droplets in the plume of a spray have a size of less than about 10 μm.

For experiment [1], the system named is loss of taste associated with Parkinson's disease. The experiment can be described thus: Treatment of chemosensory dysfunction in a Parkinson's disease patient (Example 5). Particulars: theophylline composition, nasal spray 2× daily in each naris. From the text:
A subject is admitted to a clinic for loss of taste associated with Parkinson's disease. The subject is diagnosed with chemosensory dysfunction. The subject is prescribed a theophylline composition in a nasal spray device described herein. The subject administers the nasal spray in an effective dose 2× daily in each naris. The nasal spray is characterized by a spray containing a D50 of about 15 μm to about 24 μm, a D90 of from about 30 μm to about 50 μm, and where less than about 3% of the droplets in the plume of a spray have a size of less than about 10 μm.

Experiment [2] concerns chemosensory dysfunction associated with Parkinson's disease. The experiment is described as follows: Treatment of Parkinson's disease chemosensory dysfunction with intranasal theophylline (Example 9). To be noted: adult human male; about 0.4 ml per day of 3.1 mg/ml theophylline liquid composition, nasal spray twice daily in each naris; after 7 days. As to the method:
An adult human subject was treated for chemosensory dysfunction associated with Parkinson's disease. […] The subject was administered about 0.4 ml per day of a liquid composition comprising theophylline at a concentration of 3.1 mg/ml in a nasal spray device described herein. The subject administered the nasal spray twice daily in each naris.

The structures appear in SMILES notation.

As to `N[C@@H](Cc1ccc(O)c(O)c1)C(=O)O` [levodopa], the bradykinesia and balance result in the experiment with Parkinson's disease (levodopa composition, nasal spray 4× daily in each naris) was “reduced bradykinesia and improved balance”.

As to `COc1cc2c(cc1OC)C(=O)C(CC1CCN(Cc3ccccc3)CC1)C2` (centres unmarked) [donepezil], in the experiment with Alzheimer's disease, the confusion and concentration entry was “reduced confusion and improved concentration”.

`COc1ccc(C2CNC(=O)C2)cc1OC1CCCC1` (centres unmarked) [rolipram]: the “symptoms of Parkinson's disease” value with Parkinson's disease (rolipram composition, nasal spray 2× daily in each naris) was “reduced symptoms (e.g., reduced tremors and reduced muscle rigidity)”.

Turning to `Cn1c(=O)c2[nH]cnc2n(C)c1=O` [theophylline], the sense of taste result in experiment [1] is “regains the sense of taste”. For the same compound, the “ability to taste and smell” value in experiment [2] is “regained their ability to taste and smell”.
